PMC6706398 (Scientific Reports, 2019)
Values joined by “and” are separate entries in the source; they are usually repeats but may differ in a detail not shown here. Equal values may be shown once. Read-outs that look alike come from different tables or passages of the source.

Tests used:
[1] = tested on: CT; settings: cited from earlier work
[2] = target: wild-type CT holotoxin (cCT) (Vibrio cholerae, UniProt Q57193); assay: biochemical; type: binding
[3] = target: CT; settings: cited from earlier work; remark: listed apart in the source
[4] = tested on: CTB binding in cell culture (intestinal epithelial cells); settings: cited from earlier work
[5] = tested on: CTB binding to jejunal epithelial cells; settings: cited from earlier work

For `CC(=O)N[C@H]1[C@H](O[C@@H]2[C@H](O[C@]3(C(=O)O)C[C@H](O)[C@@H](NC(C)=O)[C@H]([C@H](O)[C@H](O)CO)O3)[C@@H](O)[C@H](O[C@H]3[C@H](O)[C@@H](O)[C@H](O)O[C@@H]3CO)O[C@@H]2CO)O[C@H](CO)[C@H](O)[C@@H]1O[C@@H]1O[C@H](CO)[C@H](O)[C@H](O)[C@H]1O[C@@H]1O[C@@H](C)[C@@H](O)[C@@H](O)[C@@H]1O` [Fucosyl-GM1], the “binding to CT relative to GM1” value [1] is given as “almost as strongly as GM1”.
In the case of `CC(=O)N[C@H]1[C@H](O[C@@H]2[C@H](O[C@]3(C(=O)O)C[C@H](O)[C@@H](NC(C)=O)[C@H]([C@H](O)[C@H](O)CO)O3)[C@@H](O)[C@H](O[C@H]3[C@H](O)[C@@H](O)[C@H](O)O[C@@H]3CO)O[C@@H]2CO)O[C@H](CO)[C@H](O)[C@@H]1O[C@@H]1O[C@H](CO)[C@H](O)[C@H](O)[C@H]1O[C@@H]1O[C@@H](C)[C@@H](O)[C@@H](O)[C@@H]1O` [GM1os], the Kd [2] is listed as 5.77e-05 ± 3e-07 mM and the Kd [3] is listed as 43 nM.
For `C[C@H](O)[C@@H](O)[C@@H](O)[C@H](O)C=O` [L-fucose], the “blocking of CTB binding in cell culture” value [4] is listed as “block CTB binding”.
`CC(=O)N[C@H]1[C@H](O[C@@H]2[C@@H](O)[C@H](O)O[C@H](CO)[C@@H]2O)O[C@H](CO)[C@@H](O[C@@H]2O[C@H](CO)[C@H](O)[C@H](O)[C@H]2O)[C@@H]1O[C@@H]1O[C@@H](C)[C@@H](O)[C@@H](O)[C@@H]1O` [Le^x tetraose] gave a Kd ([2]; Kd) of 7.7 ± 0.5 mM.
For `CC(=O)N[C@@H]1[C@@H](O[C@@H]2O[C@@H](C)[C@@H](O)[C@@H](O)[C@@H]2O)[C@H](O[C@@H]2O[C@H](CO)[C@H](O)[C@H](O)[C@H]2O)[C@@H](CO)O[C@H]1O` [Le^x triaose], the “blocking of CTB binding to jejunal epithelial cells” value [5] is given as “can be blocked” and the Kd ([2]; Kd) is given as 8.1 mM and 8 mM.
